These are literature values, as cited in US20050176827A1, “Compositions and methods for glycogen synthesis” (priority 2002, published 2005).

The data set has as its system pancreatic beta cell. Conditions: micromolar concentrations; direct effect on pancreatic beta cell, glucose dependent.

Take `CC(O)C(C)C(N)C(=O)O` (stereo not shown) [4-hydroxyisoleucine]: the “effect on glucose-induced insulin secretion” value is “stimulate glucose-induced insulin secretion”.
